Source: patent US11178869B2, “Microbiocidal quinoline (thio)carboxamide derivatives” (priority 2017, dated 2021)

Legend:
[1] = test system: Glomerella lagenarium (Colletotrichum lagenarium); assay: Glomerella lagenarium (Colletotrichum lagenarium) / liquid culture (anthracnose); assay type: cell-based; conditions: Colletotrichum orbiculare; 200 ppm; compared to untreated control; growth inhibition photometrically 3-4 days after application; read-out: disease control
[2] = test system: Botryotinia fuckeliana (Botrytis cinerea); assay: Botryotinia fuckeliana (Botrytis cinerea) / liquid culture (gray mould); assay type: cell-based; conditions: 72 h, 200 ppm, compared to untreated control, growth inhibition photometrically 3-4 days after application, read-out: disease control
Fusarium culmorum [3] = assay: microbe, parasite or virus in culture; assay type: cell-based; conditions: read-out: disease control
[4] = test system: Magnaporthe grisea (Pyricularia oryzae); assay: microbe, parasite or virus in culture; assay type: cell-based; conditions: read-out: control of Magnaporthe grisea
[5] = test system: Monographella nivalis (Microdochium nivale); assay: Monographella nivalis (Microdochium nivale) / liquid culture (foot rot cereals); assay type: cell-based; conditions: 200 ppm, compared to untreated control, growth inhibition photometrically 4-5 days after application, read-out: disease control
Fusarium culmorum [6] = assay: whole plant or invertebrate; assay type: in vivo, Fusarium culmorum on wheat spikelets cv. Monsun; conditions: in Triticum aestivum, 144 h, read-out: control of Fusarium culmorum
Gaeumannomyces graminis = Gaeumannomyces graminis / liquid culture (take-all of cereals); assay type: cell-based; conditions: compared to untreated control, 4-5 days after application
Sclerotinia sclerotiorum = Sclerotinia sclerotiorum / liquid culture (cottony rot); conditions: read-out: control of Sclerotinia sclerotiorum
Description: Sclerotinia sclerotiorum/Liquid Culture (Cottony Rot)
Mycelia fragments of a newly grown liquid culture of the fungus are directly mixed into nutrient broth (Vogels broth). After placing a (DMSO) solution of test compound into a microtiter plate (96-well format) the nutrient broth containing the fungal material is added. The test plates are incubated at 24° C. and the inhibition of growth is determined photometrically 3-4 days after application.

Pyrenophora teres = Pyrenophora teres / barley / leaf disc preventative (net blotch); assay type: in vivo, Pyrenophora teres on barley leaf segments cv. Hasso; conditions: foliar, barley leaf segments, compared to untreated control, 5-7 days after application

SMILES	inhibition of growth at 200 ppm [1]	inhibition of growth at 200 ppm [2]	inhibition of growth at 200 ppm (Fusarium culmorum [3])	inhibition of growth at 20 ppm [4]	inhibition of growth at 200 ppm [5]	melting point	pest or weed control at 200 ppm (Fusarium culmorum [6])	inhibition of growth at 20 ppm (Gaeumannomyces graminis)	inhibition of growth at 20 ppm (Sclerotinia sclerotiorum)	pest or weed control at 200 ppm (Pyrenophora teres)
CCC(C)(C#Cc1ccccc1)NC(=O)c1cnc2c(C#N)cccc2c1 (stereo not shown) [Compound F-10, 8-cyano-N-(1-ethyl-1-methyl-3-phenyl-prop-2-ynyl)quinoline-3-carboxamide]	≥ 80%	≥ 80%	≥ 80%	≥ 80%	≥ 80%	172 to 174 °C	≥ 80%	≥ 80%	≥ 80%	–
CC(C)(C#Cc1ccccc1)NC(=O)c1cnc2c(F)cccc2c1 [Compound F-55, N-(1,1-dimethyl-3-phenyl-prop-2-ynyl)-8-fluoro-quinoline-3-carboxamide]	≥ 80%	≥ 80%	≥ 80%	–	≥ 80%	151 to 155 °C	–	≥ 80%	–	≥ 80%
CC(C)CC(C)(C#Cc1ccccc1)NC(=O)c1cnc2c(F)cccc2c1 (stereo not shown) [Compound F-7, N-[1,3-dimethyl-1-(2-phenylethynyl)butyl]-8-fluoro-quinoline-3-carboxamide]	≥ 80%	≥ 80%	≥ 80%	≥ 80%	≥ 80%	138 to 141 °C	≥ 80%	≥ 80%	≥ 80%	–
CC(C)C(C#Cc1ccccc1)NC(=O)c1cnc2c(Cl)cccc2c1 (stereo not shown) [Compound F-2, 8-chloro-N-(1-isopropyl-3-phenyl-prop-2-ynyl)quinoline-3-carboxamide]	–	–	≥ 80%	–	≥ 80%	168 to 170 °C	–	–	–	≥ 80%
CCC(C)(C#Cc1ccccc1)NC(=O)c1cnc2c(Cl)cccc2c1 (stereo not shown) [Compound F-11, 8-chloro-N-(1-ethyl-1-methyl-3-phenyl-prop-2-ynyl)quinoline-3-carboxamide]	≥ 80%	≥ 80%	≥ 80%	≥ 80%	≥ 80%	161 to 162 °C	≥ 80%	–	≥ 80%	≥ 80%
Cc1cccc2cc(C(=O)NC(C#Cc3ccccc3)C(C)C)cnc12 (stereo not shown) [Compound F-1, N-(1-isopropyl-3-phenyl-prop-2-ynyl)-8-methyl-quinoline-3-carboxamide]	–	≥ 80%	≥ 80%	≥ 80%	≥ 80%	–	–	–	–	≥ 80%
Cc1ccc(C#CC(C)(C)NC(=O)c2cnc3c(F)cccc3c2)s1 [Compound F-35, N-[1,1-dimethyl-3-(5-methyl-2-thienyl)prop-2-ynyl]-8-fluoro-quinoline-3-carboxamide]	–	≥ 80%	≥ 80%	–	≥ 80%	–	–	–	–	≥ 80%
COc1cccc(C#CC(C)(C)NC(=O)c2cnc3c(F)cccc3c2)c1 [Compound F-29, 8-fluoro-N-[3-(3-methoxyphenyl)-1,1-dimethyl-prop-2-ynyl]quinoline-3-carboxamide]	≥ 80%	≥ 80%	≥ 80%	–	≥ 80%	–	≥ 80%	–	–	≥ 80%
CCC(C)(C#Cc1ccccc1)NC(=O)c1cnc2c(F)cccc2c1 (stereo not shown) [Compound F-17, N-(1-ethyl-1-methyl-3-phenyl-prop-2-ynyl)-8-fluoro-quinoline-3-carboxamide]	≥ 80%	≥ 80%	≥ 80%	≥ 80%	≥ 80%	129 to 132 °C	≥ 80%	–	–	≥ 80%
Cc1ccc(C#CC(C)(C)NC(=O)c2cnc3c(F)cccc3c2)cc1 [Compound F-21, N-[1,1-dimethyl-3-(p-tolyl)prop-2-ynyl]-8-fluoro-quinoline-3-carboxamide]	≥ 80%	≥ 80%	≥ 80%	–	≥ 80%	–	–	–	–	≥ 80%
CC(C)C[C@@H](C#Cc1ccccc1)NC(=O)c1cnc2c(F)cccc2c1 [Compound G-4, 8-fluoro-N-[(1S)-3-methyl-1-(2-phenylethynyl)butyl]quinoline-3-carboxamide]	≥ 80%	≥ 80%	≥ 80%	≥ 80%	–	–	≥ 80%	≥ 80%	–	≥ 80%
